The results in this text go back to BindingDB's records for doi:10.1016/j.bmcl.2004.01.021 (Atherogenics, 2004).

The experiment deals with T1, Tumor necrosis factor receptor superfamily member 1A (Homo sapiens, UniProt P19438).
T1 sequence (P19438 whole entry): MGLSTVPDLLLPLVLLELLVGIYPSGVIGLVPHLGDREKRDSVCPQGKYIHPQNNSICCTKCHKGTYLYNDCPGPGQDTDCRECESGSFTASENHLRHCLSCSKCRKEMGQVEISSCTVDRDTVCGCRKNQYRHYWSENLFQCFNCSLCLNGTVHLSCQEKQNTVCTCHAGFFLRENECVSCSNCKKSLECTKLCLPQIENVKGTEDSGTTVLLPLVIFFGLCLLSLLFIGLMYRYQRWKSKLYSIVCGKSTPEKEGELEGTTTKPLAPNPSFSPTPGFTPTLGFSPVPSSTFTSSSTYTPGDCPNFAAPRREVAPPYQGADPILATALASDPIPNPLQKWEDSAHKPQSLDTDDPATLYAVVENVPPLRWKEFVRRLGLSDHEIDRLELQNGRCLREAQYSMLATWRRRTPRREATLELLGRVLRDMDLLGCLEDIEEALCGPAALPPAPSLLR
Briefly: ChEBML_224214. From the text: Inhibition of TNF-alpha-induced VCAM-1 expression
As usually defined, the IC50 is the concentration needed to halve the response being measured. Low readings indicate greater potency, high ones weaker potency. For `COc1cc(/C=C/C(=O)c2cc(OC)c(OC)c(OC)c2)cc(Br)c1OC` [(E)-3-(3-Bromo-4,5-dimethoxy-phenyl)-1-(3,4,5-trimethoxy-phenyl)-propenone], the IC50 stood at 4 µM.

`CCOc1ccc(/C=C/C(=O)c2cc(-c3cccs3)ccc2OC)cc1F` [(E)-3-(4-Ethoxy-3-fluoro-phenyl)-1-(2-methoxy-5-thiophen-2-yl-phenyl)-propenone] gave an IC50 of 4 µM. `COc1cc(C(=O)/C=C/c2ccc(-c3cccs3)cc2)cc(OC)c1OC` [(E)-3-(4-Thiophen-2-yl-phenyl)-1-(3,4,5-trimethoxy-phenyl)-propenone] gave a 50% inhibitory concentration (IC50) of 6 µM. In turn, `COc1cc(OC)c(-c2cc3ccccc3s2)cc1/C=C/C(=O)c1ccc(OC)c(OC)c1OC` [(E)-3-(5-Benzo[b]thiophen-2-yl-2,4-dimethoxy-phenyl)-1-(2,3,4-trimethoxy-phenyl)-propenone] displayed an IC50 of 8 µM. Regarding `COc1cc(OC)c(-c2cc3ccccc3s2)cc1/C=C/C(=O)c1cc(OC)c(OC)c(OC)c1` [(E)-3-(5-Benzo[b]thiophen-2-yl-2,4-dimethoxy-phenyl)-1-(3,4,5-trimethoxy-phenyl)-propenone], 5 µM corresponded to half-maximal inhibition (IC50). Regarding `COc1cc(OC)c(-c2cc3ccccc3s2)cc1/C=C/C(=O)c1ccc(OC)c(OC)c1` [(E)-3-(5-Benzo[b]thiophen-2-yl-2,4-dimethoxy-phenyl)-1-(3,4-dimethoxy-phenyl)-propenone], the concentration for half-maximal inhibition (IC50) stood at 11 µM. Take `COc1cc(OC)c(-c2cc3ccccc3s2)cc1/C=C/C(=O)c1cc(OC)c(OCC2CC2)c(OC)c1` [(E)-3-(5-Benzo[b]thiophen-2-yl-2,4-dimethoxy-phenyl)-1-(4-cyclopropylmethoxy-3,5-dimethoxy-phenyl)-propenone]: the IC50 is over 50 µM. Then `COc1cc(OC)c(-c2cc3ccccc3s2)cc1/C=C/C(=O)c1cc(OC)c(O)c(OC)c1` [(E)-3-(5-Benzo[b]thiophen-2-yl-2,4-dimethoxy-phenyl)-1-(4-hydroxy-3,5-dimethoxy-phenyl)-propenone], with 1 µM; and `COc1cc(OC)c(-c2cc3ccccc3s2)cc1/C=C/C(=O)c1ccc(NC2OC(CO)C(O)C(O)C2O)cc1` (configuration not stated) [(E)-3-(5-Benzo[b]thiophen-2-yl-2,4-dimethoxy-phenyl)-1-[4-(3,4,5-trihydroxy-6-hydroxymethyl-tetrahydro-pyran-2-ylamino)-phenyl]-propenone], with 17 µM.

As for `COc1ccc(-c2cc3ccccc3s2)cc1/C=C/C(=O)c1cc(OC)c(OC)c(OC)c1` [(E)-3-(5-Benzo[b]thiophen-2-yl-2-methoxy-phenyl)-1-(3,4,5-trimethoxy-phenyl)-propenone], it took 2 µM to reach half-maximal inhibition (IC50). `COc1ccc(-c2cc3ccccc3s2)cc1/C=C/C(=O)c1ccc(OC)c(OC)c1` [(E)-3-(5-Benzo[b]thiophen-2-yl-2-methoxy-phenyl)-1-(3,4-dimethoxy-phenyl)-propenone]: the IC50 turned out to be 2 µM. Then `COc1ccc(C(=O)/C=C/c2cc(-c3cc4ccccc4s3)ccc2OC)cc1` [(E)-3-(5-Benzo[b]thiophen-2-yl-2-methoxy-phenyl)-1-(4-methoxy-phenyl)-propenone], with 3 µM; and `COc1cc(OC)c(/C=C/C(=O)c2cc(OC)c(OC)c(OC)c2)cc1Br` [(E)-3-(5-Bromo-2,4-dimethoxy-phenyl)-1-(3,4,5-trimethoxy-phenyl)-propenone], with 2 µM; and `COc1ccc(Br)cc1/C=C/C(=O)c1cc(OC)c(OC)c(OC)c1` [(E)-3-(5-Bromo-2-methoxy-phenyl)-1-(3,4,5-trimethoxy-phenyl)-propenone], with 1 µM. For the compound `COc1ccc(-c2cc(C)cs2)cc1/C=C/C(=O)c1cc(OC)c(OC)c(OC)c1` [(E)-3-[2-Methoxy-5-(4-methyl-thiophen-2-yl)-phenyl]-1-(3,4,5-trimethoxy-phenyl)-propenone], the IC50 is 2 µM.

Take `COc1ccc(-c2ccc(C)s2)cc1/C=C/C(=O)c1cc(OC)c(OC)c(OC)c1` [(E)-3-[2-Methoxy-5-(5-methyl-thiophen-2-yl)-phenyl]-1-(3,4,5-trimethoxy-phenyl)-propenone]: the IC50 is 2 µM. Then `COc1cc(C(=O)C=Cc2cc(OC)c(OC)c(-c3ccc(C(C)=O)s3)c2)cc(OC)c1OC` [(E)-3-[3-(5-Acetyl-thiophen-2-yl)-4,5-dimethoxy-phenyl]-1-(3,4,5-trimethoxy-phenyl)-propenone], with 3 µM; and `O=C(/C=C/c1ccccc1)c1ccccc1` [Chalcone, 13], with 23 µM. Regarding `COc1cc(OCC(=O)O)c(/C=C/C(=O)c2ccccc2)cc1-c1cc2ccccc2s1` [[4-Benzo[b]thiophen-2-yl-5-methoxy-2-((E)-3-oxo-3-phenyl-propenyl)-phenoxy]-acetic acid], half-maximal inhibition (IC50) required 1 µM.

`COc1ccc(-c2cccs2)cc1/C=C/C(=O)c1cc(OC)c(OCC(=O)O)c(OC)c1` [{2,6-Dimethoxy-4-[(E)-3-(2-methoxy-5-thiophen-2-yl-phenyl)-acryloyl]-phenoxy}-acetic acid]: the half-maximal inhibitory concentration (IC50) was determined as 1 µM.

Compound `COc1cc(C(=O)/C=C/c2cc(OC)c(OC)c(-c3cccs3)c2)cc(OC)c1OCC(=O)O` [{4-[(E)-3-(3,4-Dimethoxy-5-thiophen-2-yl-phenyl)-acryloyl]-2,6-dimethoxy-phenoxy}-acetic acid] had an IC50 of 1 µM. Then `COc1cc(OC)c(-c2cc3ccccc3s2)cc1/C=C/C(=O)c1ccc(SCC(=O)O)cc1` [{4-[(E)-3-(5-Benzo[b]thiophen-2-yl-2,4-dimethoxy-phenyl)-acryloyl]-phenylsulfanyl}-acetic acid], with 1 µM.
